# From article PMC8611796, “Defining natural factors that stimulate and inhibit cellulose:xyloglucan hetero‐transglucosylation” (The Plant Journal, 2021)
# What was measured:
# Assay type in all cases: biochemical
# [1] = target: T1, EfHTG (Equisetum fluviatile hetero-trans-beta-glucanase) (Equisetum fluviatile, UniProt A0A0K2WA62); assay: radiochemical CXE assay, [3H]XXXGol incorporation; conditions: read-out: % inhibition at 0.3 mM
# T1 construct: gene HTG; secreted by Pichia pastoris SMD1168H; culture filtrate used; made as in Simmons et al. 2015
# T1 sequence (A0A0K2WA62 22-280): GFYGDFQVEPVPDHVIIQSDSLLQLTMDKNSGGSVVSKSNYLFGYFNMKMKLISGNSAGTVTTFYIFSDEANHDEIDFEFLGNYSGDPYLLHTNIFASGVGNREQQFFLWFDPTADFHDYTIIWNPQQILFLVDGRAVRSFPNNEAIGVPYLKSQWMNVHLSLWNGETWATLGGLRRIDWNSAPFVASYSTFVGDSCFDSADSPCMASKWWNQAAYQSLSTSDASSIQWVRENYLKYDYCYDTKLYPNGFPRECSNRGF
# [2] = target: T1, EfHTG (Equisetum fluviatile hetero-trans-beta-glucanase); assay: radiochemical CXE and MXE assay, [3H]XXXGol incorporation; conditions: cellulose or MLG donor, succinate pH 5.5, 20 C, 24 h
# [3] = target: T1, EfHTG (Equisetum fluviatile hetero-trans-beta-glucanase); assay: radiochemical transglucosylase assay (XET, MXE, CXE); conditions: acceptor substrate; labelled compound; xyloglucan, MLG or cellulose donor; pH 5.5
Compound,% inhibition ([2]; [3H]XXXGol acceptor),other results
CCCCN1C[C@H](O)[C@@H](O)[C@H](O)[C@H]1CO [N-butyldeoxynojirimycin],–,inhibition at 300 µM [1]: ~50%
OC[C@H]1O[C@@H](O[C@H]2[C@H](O)[C@@H](O)[C@H](O[C@H]3[C@H](O)[C@@H](O)[C@H](O[C@H]4[C@H](O)[C@@H](O)C(O)O[C@@H]4CO)O[C@@H]3CO)O[C@@H]2CO)[C@H](O)[C@@H](O)[C@@H]1O (stereo partly shown) [cellotetraose],We found that cello‐oligosaccharides (C2–C6) are efficient inhibitors of Equisetum HTG,–
OC[C@@H](O)[C@@H](O[C@@H]1O[C@H](CO[C@H]2OC[C@@H](O)[C@H](O)[C@H]2O)[C@@H](O[C@@H]2O[C@H](CO[C@H]3OC[C@@H](O)[C@H](O)[C@H]3O)[C@@H](O[C@@H]3O[C@H](CO[C@H]4OC[C@@H](O)[C@H](O)[C@H]4O)[C@@H](O)[C@H](O)[C@H]3O)[C@H](O)[C@H]2O)[C@H](O)[C@H]1O)[C@H](O)[C@@H](O)CO [[3H]XXXGol],–,"radiochemical transglucosylase assay (XET, MXE, CXE) [3]: albeit at lower rates than onto the oligosaccharide [^3H]XXXGol"
OC[C@H]1O[C@@H](O[C@H]2[C@H](O)[C@@H](O)[C@H](O[C@H]3[C@H](O)[C@@H](O)C(O)O[C@@H]3CO)O[C@@H]2CO)[C@H](O)[C@@H](O)[C@@H]1O (stereo partly shown) [cellotriose],We found that cello‐oligosaccharides (C2–C6) are efficient inhibitors of Equisetum HTG,–
OC[C@H]1O[C@@H](O[C@H]2[C@H](O)[C@@H](O)[C@H](O[C@H]3[C@H](O)[C@@H](O)[C@H](O[C@H]4[C@H](O)[C@@H](O)[C@H](O[C@H]5[C@H](O)[C@@H](O)[C@H](O[C@H]6[C@H](O)[C@@H](O)C(O)O[C@@H]6CO)O[C@@H]5CO)O[C@@H]4CO)O[C@@H]3CO)O[C@@H]2CO)[C@H](O)[C@@H](O)[C@@H]1O (stereo partly shown) [cellohexaose],We found that cello‐oligosaccharides (C2–C6) are efficient inhibitors of Equisetum HTG,–
OC[C@H]1O[C@@H](O[C@H]2[C@H](O)[C@@H](O)C(O)O[C@@H]2CO)[C@H](O)[C@@H](O)[C@@H]1O (stereo partly shown) [cellobiose],–,"% inhibition ([2]; 0.01-80 mM inhibitor, [3H]XXXGol or [3H]XyG acceptor): Cellobiose inhibited EfHTG’s CXE activity equally whether [^3H]XXXGol or polymeric [^3H]XyG was the acceptor"
OC[C@H]1O[C@@H](O[C@H]2[C@H](O)[C@@H](O)[C@H](O[C@H]3[C@H](O)[C@@H](O)[C@H](O[C@H]4[C@H](O)[C@@H](O)[C@H](O[C@H]5[C@H](O)[C@@H](O)C(O)O[C@@H]5CO)O[C@@H]4CO)O[C@@H]3CO)O[C@@H]2CO)[C@H](O)[C@@H](O)[C@@H]1O (stereo partly shown) [cellopentaose],We found that cello‐oligosaccharides (C2–C6) are efficient inhibitors of Equisetum HTG,–
